Measured values as given in PubChem BioAssay (NCI).
Where “and” joins values, the source holds several entries; their conditions need not be identical. Equal values may be shown once.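 Step 1: Grow cells in 96-well plates. Step 2: Expose to compound for 48 hours at 5 concentrations. Step 3: Interpolate endpoints linearly; if unreached, use highest concentration. Here, GI50 denotes the concentration required for 50% inhibition of growth. TGI is the concentration that stops growth completely.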

How the values were obtained:
Assay in all cases: NCI anticancer screen, dose series, 48 h
A549 NSCLC = tested on: A549 NSCLC
ACHN renal = tested on: ACHN renal
HOP-62 NSCLC = tested on: HOP-62 NSCLC
MDA-MB-231 breast = tested on: MDA-MB-231 breast
SF-268 CNS = tested on: SF-268 CNS
SK-MEL-2 melanoma = tested on: SK-MEL-2 melanoma
SN12C renal = tested on: SN12C renal
SNB-19 CNS = tested on: SNB-19 CNS
SR leukemia = tested on: SR leukemia
SW-620 colon = tested on: SW-620 colon

| SMILES | GI50 (A549 NSCLC) | TGI (A549 NSCLC) | GI50 (ACHN renal) | TGI (ACHN renal) | GI50 (HOP-62 NSCLC) | TGI (HOP-62 NSCLC) | GI50 (MDA-MB-231 breast) | TGI (MDA-MB-231 breast) | GI50 (SF-268 CNS) | TGI (SF-268 CNS) | GI50 (SK-MEL-2 melanoma) | TGI (SK-MEL-2 melanoma) | GI50 (SN12C renal) | TGI (SN12C renal) | GI50 (SNB-19 CNS) | TGI (SNB-19 CNS) | GI50 (SR leukemia) | TGI (SR leukemia) | GI50 (SW-620 colon) | TGI (SW-620 colon) |
| --- | --- | --- | --- | --- | --- | --- | --- | --- | --- | --- | --- | --- | --- | --- | --- | --- | --- | --- | --- | --- |
| CCOc1cccc(/C=N/NC(=O)c2cccc(Nc3ccnc(C(F)(F)F)c3)c2)c1O | 3.73 µM | > 100 µM | 0.699 µM | > 50.3 µM | 0.682 µM | 15.3 µM | 0.888 µM | > 91.1 µM | 0.873 µM | > 45.3 µM | 8.5 µM | 39.9 µM | 1.66 µM | > 70.7 µM | 1.63 µM | > 100 µM | 0.212 µM | 8.67 µM | 3.04 µM | > 88.7 µM |
| Nc1ncnc2c1ncn2C1C=C(CO)C(O)C1O (stereo not drawn) | – | > 100 µM | – | 66.9 µM | – | > 100 µM | – | 52.5 µM | – | > 100 µM | – | > 80.4 µM | – | > 100 µM | – | > 100 µM | – | 3.24 µM | – | > 86.8 µM |
| O=C(O)CSCCc1ccccc1 | – | > 100 µM | – | > 100 µM | – | > 100 µM | – | > 100 µM | – | > 100 µM | – | > 100 µM | – | > 100 µM | – | > 100 µM | – | > 100 µM | – | > 100 µM |
| O=C(O)c1ccc(CN2CCC(CN[C@@H]3C[C@H]3c3ccccc3)CC2)cc1 | > 100 µM | > 100 µM | > 100 µM | > 100 µM | > 100 µM | > 100 µM | > 100 µM | > 100 µM | > 100 µM | > 100 µM | > 100 µM | > 100 µM | > 100 µM | > 100 µM | > 100 µM | > 100 µM | > 100 µM | > 100 µM | > 100 µM | > 100 µM |
| COC(=O)c1ccc2[nH]c(O)c(C(=Nc3ccc(N(C)C(=O)CN4CCN(C)CC4)cc3)c3ccc4c(c3)OCO4)c2c1 | 1.09 µM | 4.12 µM | 1.58 µM | 7.11 µM | 0.939 µM | 4.53 µM | 1.08 µM | 2.76 µM | 0.929 µM | 3.86 µM | 1.24 µM | 3.69 µM | 0.321 µM | 9.61 µM | 1.06 µM | 6.05 µM | 0.232 µM | 2.93 µM | 0.348 µM | 2.21 µM |
| C=C1c2c(C)nn(-c3ccc(C#CCOC4OC(CO)C(O)C(O)C4O)cc3)c2N(C)C23C[C@H]1C1(C)c4c(C)nn(-c5ccc(C#CCOC6OC(CO)C(O)C(O)C6O)cc5)c4N(C)C(C)(C[C@H]12)C3 (stereo partly drawn) | 1.68 µM | 4.09 µM | 2.42 µM | 10.6 µM | 1.49 µM | 2.88 µM | 1.5 µM | 3.06 µM | 1.75 µM | 3.57 µM | 1.76 µM | 3.39 µM | 1.38 µM | 3.72 µM | 1.66 µM | 3.95 µM | 3.28 µM | > 100 µM | 1.72 µM | 3.77 µM |
| CCN1C(=O)c2ccc3c4c(ccc(c24)C1=O)C(=O)N(CCCNCc1ccccc1OC)C3=O | 0.78 µM | 2.49 µM | 0.553 µM | 4.63 µM | 0.925 µM | 2.78 µM | 0.791 µM | 9.31 µM | 1.15 µM | 5.75 µM | 1.55 µM | 3.48 µM | 0.327 µM | 1.32 µM | 1.33 µM | 2.97 µM | 0.466 µM | 6.3 µM | 0.362 µM | 1.77 µM |
| O=C(/C=C/c1ccccc1)Nc1ncc(Cc2ccccc2Cl)s1 | 0.469 µM | > 100 µM | 0.612 µM | > 100 µM | 0.505 µM | > 100 µM | 0.668 µM | > 100 µM | 1.8 µM | > 100 µM | 1.25 µM | > 100 µM | 0.623 µM | > 100 µM | 0.404 µM | > 100 µM | 0.153 µM | > 100 µM | 0.413 µM | > 100 µM |
| CN(C)Cc1cc(C(F)(F)F)ccc1C(O)(c1ccccc1)c1ccccc1 | – | 29.5 µM | – | 29.9 µM | – | 33.7 µM | – | 24.8 µM | – | 34.3 µM | – | 41 µM | – | 29.3 µM | – | 38.4 µM | – | 28 µM | – | 41 µM |
| CN(C)CCC(=O)N1C/C(=C\c2ccc(Cl)c(Cl)c2)C(=O)/C(=C/c2ccc(Cl)c(Cl)c2)C1 | – | 2.05 µM | – | 1.05 µM | – | 0.941 µM | – | 0.799 µM | – | 0.653 µM | – | 3.34 µM | – | 0.44 µM | – | 2.13 µM | – | 9.84 µM | – | 0.349 µM |
| CNC(=O)OCc1nc(SSC(C)(C)C)n(C)c1COC(=O)NC | – | 28 µM | – | 8.71 µM | – | 31.1 µM | – | 6.95 µM | – | 16.7 µM | – | 19.5 µM | – | 13.7 µM | – | 33.9 µM | – | 5.54 µM | – | 3.67 µM |
| COc1ccc2c(c1)NC1=C(C(=O)OC1)C2c1cc(OC)c(OC)c(OC)c1 (stereo not drawn) | < 0.01 µM | > 100 µM | < 0.01 µM | > 100 µM | < 0.01 µM | 42.5 µM | < 0.01 µM | < 0.01 µM | < 0.01 µM | > 100 µM | < 0.01 µM | > 100 µM | < 0.01 µM | > 100 µM | < 0.01 µM | > 100 µM | < 0.01 µM | > 100 µM | < 0.01 µM | > 100 µM |
| C=CC(=O)N1CCC(Oc2cc3c(Nc4ccc(Cl)c(Cl)c4F)ncnc3cc2OC)CC1 | 3.12 µM and 1.6 µM | 19.9 µM and > 10 µM | < 0.001 µM | 14.9 µM and > 10 µM | 3.88 µM and 3.1 µM | 25.1 µM and > 10 µM | 3.79 µM and 1.65 µM | 23.8 µM and > 9.63 µM | 0.743 µM and 0.466 µM | 19.4 µM and > 7.14 µM | 6.15 µM and 1.95 µM | 27 µM and 6.41 µM | 2.88 µM and 1.79 µM | 25.2 µM and > 10 µM | 8.97 µM and 6.52 µM | 23.9 µM and > 10 µM | 2.27 µM and 2.8 µM | 10.9 µM and > 10 µM | 10.3 µM and 4.24 µM | 34.2 µM and > 10 µM |
| CC(=O)OC1OC([C@H]2c3cccc(O)c3C(=O)c3c(O)cc(C)cc32)C(O)C(O)C1O (stereo partly drawn) | 0.0479 µM | 15.1 µM | 0.0729 µM | 0.437 µM | 0.065 µM | 1.93 µM | 0.0188 µM | 0.0671 µM | 0.0788 µM | 1.74 µM | 0.0962 µM | 2.63 µM | < 0.0259 µM | – | 0.0342 µM | – | 0.0308 µM | 0.119 µM | 0.112 µM | 14.1 µM |
| CS(=O)(=O)CCNCc1coc(-c2ccc3ncnc(Nc4ccc(OCc5ccccc5)cc4)c3c2)c1 | 5.65 µM | > 22 µM | 3.69 µM | 17.1 µM | 5.03 µM | 11.1 µM | 4.15 µM | 8.26 µM | 3.35 µM | 7.5 µM | 4.55 µM | 8.92 µM | 3.57 µM | 8.04 µM | 6.4 µM | > 25 µM | 4.81 µM | 12.9 µM | 4.34 µM | 8.34 µM |
| C[C@]12CCc3sc(Nc4ccc(OC(F)(F)F)cc4)nc3C1=CC[C@@H]1[C@@H]2CC[C@]2(C)C(=O)CC[C@@H]12 | 3.35 µM | 16.1 µM | 3.27 µM | 10.8 µM | 1.92 µM | 4.19 µM | 2.42 µM | 7.84 µM | 3.01 µM | 12.3 µM | 3 µM | 11.6 µM | 3.44 µM | 16.1 µM | 2.12 µM | 9.93 µM | 2.74 µM | > 100 µM | 2.21 µM | 5 µM |
| COc1ccc2c(c1)OC1=C(C(=O)OC1)C2c1cc(OC)c2c(c1)OCCO2 (stereo not drawn) | 0.0603 µM | > 100 µM | 0.122 µM | > 100 µM | 0.0512 µM | > 100 µM | 0.156 µM | > 94.6 µM | 0.156 µM | > 100 µM | 0.0483 µM | > 100 µM | 0.0972 µM | > 100 µM | 0.0697 µM | > 100 µM | 0.0318 µM | > 100 µM | 0.0393 µM | > 100 µM |
| O=C1C=CC(=O)C2C1C1(Cl)C(Cl)=C(Cl)C2(Cl)C1(Cl)Cl (stereo not drawn) | 5.5 µM | 26.5 µM | 4.18 µM | 18.3 µM | 10.6 µM | 26.2 µM | 3.62 µM | 16.4 µM | 3.16 µM | 14.8 µM | 3.18 µM | 8.99 µM | 6 µM | 25.6 µM | 11.2 µM | 25.4 µM | 2.53 µM | 12.3 µM | 3.94 µM | 15.1 µM |
| CCOc1cc(C(C)(C)C)ccc1C1=N[C@H](c2ccc(Cl)cc2)[C@H](c2ccc(Cl)cc2)N1C(=O)N1CCN(CC#Cc2cccc3c2CN([C@@H]2CCC(=O)NC2=O)C3=O)CC1 | 1.1 µM | > 43.1 µM | 1.24 µM | 12.4 µM | 0.115 µM | 16.3 µM | 0.0192 µM | 0.0797 µM | 1.2 µM | > 100 µM | 2.98 µM | 13.6 µM | 1.31 µM | > 100 µM | 2.1 µM | > 58.8 µM | 0.642 µM | > 100 µM | 0.143 µM | > 100 µM |
| CCN(CC)CCCC(CCl)Nc1ccnc2cc(Cl)ccc12 (stereo not drawn) | 20 µM and 27 µM | 55 µM and > 100 µM | 36 µM and 6.74 µM | > 100 µM | 25.7 µM and 28.7 µM | 71.8 µM and > 100 µM | 16.3 µM and 5.11 µM | 79.5 µM and > 43.1 µM | 17.1 µM and 21.6 µM | 49.8 µM and 97 µM | 25.4 µM and 35 µM | 57.5 µM and > 100 µM | 52.1 µM and 48 µM | > 100 µM | 94.8 µM and > 89.7 µM | > 100 µM | 0.421 µM | 3.25 µM | 22.5 µM and 33.5 µM | 54.4 µM and > 100 µM |
| Nc1n[nH]c2cccc(C#Cc3cccc(NC(=O)c4cccc(C(F)(F)F)c4)c3)c12 | 4.84 µM | 18.6 µM | 2.44 µM | 9.78 µM | 3.41 µM | 13.9 µM | 1.5 µM | 6.5 µM | 3.82 µM | 16.3 µM | 1.36 µM | 6.95 µM | 4.09 µM | 17.3 µM | 6.13 µM | 18.5 µM | 3.95 µM | 55 µM | 3.22 µM | 19.5 µM |
